Assay results: paper PMC11925246 (Journal of Bacteriology, 2025)
Several values for one entry are separate records, joined by “and”; a condition that tells them apart may be missing. Identical values can stand only once. Like-named read-outs stand apart in the source and are kept apart here.

Assays:
[1] = biological target: periplasmic domain of Rsc1598 (Ralstonia pseudosolanacearum, UniProt Q8XZ08); test: biochemical; assay type: binding, R. pseudosolanacearum OE1-1
hrpB expression [2] = assay type: cell-based, R. pseudosolanacearum; settings: hrpB-lacZ resting cells, 25°C; for Induction of hrpB expression by organic acids: organic acid 0.1 mM, 20 h (Fig. 5); for Induction of hrpB expression by sugars: sugar 0.01%, 20 h (Fig. 6)
hrpB expression [3] = assay type: cell-based, R. pseudosolanacearum; settings: malic acid 0.5 mM or sucrose 0.01%, quarter-strength M63 with 0.25% glucose, 28 °C, 5 h (Fig. S4)

Sequence of periplasmic domain of Rsc1598 (Q8XZ08 99-319 limits assumed): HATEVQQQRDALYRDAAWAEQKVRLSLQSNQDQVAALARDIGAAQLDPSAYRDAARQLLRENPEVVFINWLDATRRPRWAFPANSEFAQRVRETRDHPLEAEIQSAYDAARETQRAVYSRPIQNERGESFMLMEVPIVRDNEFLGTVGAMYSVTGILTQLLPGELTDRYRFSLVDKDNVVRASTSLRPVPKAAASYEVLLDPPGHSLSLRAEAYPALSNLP

| SMILES | Kd ([1]; Kd) | Induction of hrpB expression by organic acids (hrpB expression [2]) | Induction of hrpB expression by sugars (hrpB expression [2]) | other results |
| --- | --- | --- | --- | --- |
| O=C(O)CC(O)(CC(=O)O)C(=O)O [Citric acid, citric acid] | – | – | – | Kd ([1]; Kd, Average of titrations, 25°C, pH 7.6): 155 ± 80.7 µM; Kd ([1]; Kd, ITC single titration, ligand 4 mM, 25°C, 50 mM sodium phosphate buffer pH 7.6, protein 40 µM): 137 µM; Kd ([1]; Kd, ITC single titration, ligand 5 mM, 25°C, 50 mM sodium phosphate buffer pH 7.6, protein 40 µM): 84.5 µM; Kd ([1]; Kd, ITC single titration, ligand 6 mM, 25°C, 50 mM sodium phosphate buffer pH 7.6, protein 40 µM): 243 µM |
| O=C(O)/C=C/C(=O)O [Fumaric acid, fumaric acid] | 47 µM and 56.3 µM | – | – | Kd ([1]; pH 7.6): smaller than that of malic acid |
| O=C(O)CC(O)C(=O)O (centres unmarked) [Malic acid, malic acid] | 68.4 µM and 64.3 µM and 89 µM and 65 µM | induced high levels of hrpB expression | – | Induction of hrpB-lacZ expression in growing cells (hrpB expression [3]): induced hrpB expression |
| O=C(CO)[C@@H](O)[C@H](O)[C@H](O)CO [fructose] | – | – | induced hrpB expression | – |
| OC[C@H]1O[C@@](CO)(O[C@H]2O[C@H](CO)[C@@H](O)[C@H](O)[C@H]2O)[C@@H](O)[C@@H]1O [sucrose] | – | – | the most effective sugar | Induction of hrpB-lacZ expression in growing cells (hrpB expression [3]): minimal induction |
| O=C(O)[C@@H]1CCC(O)=N1 [L-pyroglutamic acid] | 41 µM and 43.2 µM and 194 µM | induced high levels of hrpB expression | – | – |
| O=C(O)CCC(=O)O [Succinic acid, succinic acid] | 29.5 µM and 190 µM | induced high levels of hrpB expression | – | – |
| OC[C@H]1OC(O)[C@H](O)[C@@H](O)[C@@H]1O (some centres unmarked) [glucose] | – | – | induced hrpB expression | – |
| O=C(O)C(=O)O [Oxalic acid, oxalic acid] | 229 µM and 151 µM | – | – | – |
| O=CO [Formic acid, formic acid] | – | – | – | Kd ([1]; ITC single titration, ligand 5 mM, 25°C, 50 mM sodium phosphate buffer pH 7.6, protein 40 µM, read-out: Kd): 71.5 µM; Kd ([1]; ITC single titration, ligand 6 mM, 25°C, 50 mM sodium phosphate buffer pH 7.6, protein 40 µM, read-out: Kd): 231 µM |
